Reference: US6197944A, “DNA molecules stabilized by modifications of the 3'-terminal phosphodiester linkage” (Integrated DNA Technologies, Inc., priority 1994, dated 2001)

Assays:
c-myc mRNA = experiment: Inhibition of expression of c-myc in MOPC 315 cells (Northern blot); format: cell-based, murine; settings: either 1 or 5 micromolar, 4 hours at 37° C.
Description: MOPC 315 cells were maintained in RPMI 1640 culture media containing 10% fetal calf serum at 37° C. with 7% CO2. Log phase MOPC 315 cells were harvested by centrifugation (250×g for 19 minutes at 23° C.) and resuspended at a density of 5×10^6 /ml in HB101 serum-free medium (DuPont). One ml aliquots of this cell suspension were incubated in the presence of oligonucleotide for 4 hours at 37° C. and 7% CO2. Additional one ml aliquots were incubated concommitantly without oligonucleotide. Cells from each group were then collected by centrifugation. Total cellular RNA was prepared as described by Chirgwin et al., Biochemistry 18, 5294-5299 (1979), and analyzed by Northern blots as described in Example 7. The filters were probed with an oligonucleotide complementary to c-myc mRNA labeled with ^32 P using polynucleotide kinase and γ^32 P-ATP as in previous examples.

[1] = Degradation of oligonucleotide in K562 cell extracts; format: in vitro ADME, human
Description: The purpose of these studies was to determine the pathways by which oligonucleotides are degraded by nucleases present within human cells. Radiolabeled derivatives of MA-15 were prepared as in Example 3. Degradation of the oligonucleotide was studied in extracts prepared from the human erythroleukemia cell line K562. The K562 cell line was first isolated by Lozzio, C. B., and Lozzio, B. B., Blood (1975) 45, 321-334, and has been studied extensively as a model for red cell differentiation. The cells were suspended in 10 mM tris buffer pH 7.4 with 5 mM MgCl2, 1 mM CaCl2, 100 mM NaCl, and 0.1% Triton® X-100 (polyethylene glycol 4-isooctylphenyl ether, and homogenized with a cold motor driven teflon pestle homogenizer for 30 seconds. Cell membranes and organelles were further disrupted by sonication by five 15 second bursts using a Biosonic sonifier set on full power. Remaining cell debris was removed from the extracts by centrifugation for 5 minutes at 12,000×g.
The radiolabeled oligonucleotide was incubated in K562 cell extracts under the same conditions as decribed in Example 3 and the degradation products analyzed by polyacrylamide gel electrophoresis. […] The half-life for cleavage of the 3'-terminal internucleotide link was 2 minutes. […] The half-life for cleavage of the 5'-terminal nucleotide unit from the chain by this mechanism was 20 minutes.
The derivative of MA-15 described in Example 5 in which the 3'-terminal internucleotide link was modified as a 2,2,2-trichloro-1,1-dimethylethyl phosphotriester was also used in this study. Extracts from K562 cells were prepared as in Example 4. The modified oligonucleotide was incubated in the cell extracts at 37° C. Aliquots were removed at various times, and the products of degradation were analyzed by polyacrylamide gel electrophoresis.

β-globin mRNA = experiment: In vitro translation in rabbit reticulocyte lysate, β-globin synthesis; format: biochemical, mouse; settings: in words; MA-15 complementary to 12 of 15 residues of β-globin mRNA
Description: For the purpose of these experiments two oligonucleotides were synthesized: 5'-GAGCACCATGGTTTC, MA-15; and 5'-[…],(SEQ ID NO:2) CODMB-25. Both were prepared on a Beckman automated DNA synthesizer using the phophoramidite method. MA-15 is complementary to a sequence within mouse α-globin mRNA spanning the initiation codon. CODMB-25 hybridizes to a sequence within the coding region of mouse β-globin mRNA. Mouse globin mRNA was isolated from reticulocytes obtained from mice rendered anemic by treatment with phenylhydrazine as described by Goosens and Kan (Methods in Enzymology (Antonini, E., Rossi-Bernadi, L., and Chiancone, E., eds.) 76, 805-817, 1981). In vitro translation reactions were carried out in the rabbit reticulocyte lysate system. The reticylocyte lysates used were purchased from ProMega Biotec, and contain RNaseH. Translation reactions were programmed with 1 ug of total mouse reticulocyte RNA. The reactions were allowed to proceed for 1 hour at 30° C. Each sample contained 45 uCi of [^35 S]methionine (Amersham) in a total volume of 25 ul. Protein synthesis was measured by incorporation of [^35 S]methionine into material precipitatable in 10% trichloracetic acid. In control reactions in the absence of oligonucleotide, synthesis of β globin accounts for 60% of the incorporated counts; α globin synthesis accounts for 40% of the radioactivity incorporated into protein. […]

[2] = format: in vitro ADME, human; settings: 37° C., 15 minutes to 2 hours, heparinized blood
Description: The oligonucleotide MA-15 described in Example 1 was radioactively labeled with ^32 P at the 5'-end of the molecule using γ^32 P-adenosine triphosphate (γ ^32 P-ATP, Amersham) and T4 polynucleotide kinase (Bethesda Research Laboratories):
where the asterisk represents the radiolabel. Separately, a radiolabeled derivative was prepared in which ^32 P was introduced at the 3'most internucleotide link using α^32 P-deoxycytidine triphosphate (dCTP) and DNA polymerase I (Bethesda Research Laboratories):
The reaction catalyzed by DNA polymerase I is between 5'-GAGCACCATGGTTT and dCTP and requires the complementary DNA strand as a template. A 50 fold excess of unlabeled MA-15 was added after the reaction to insure that the labeled derivative is single stranded. These procedures are standard methods for radiolabeling DNA fragments, see for example, Maniatis, T., Fritsch, E. F., and Sambrook, J., Molecular Cloning: A Laboratory Manual, Cold Spring Harbor Laboratory, New York, pp. 114-115 and 122-126, 1982, which is incorporated herein by reference. […]
The modified oligonucleotide was labeled with ^32 P at the 5'-terminal OH group using γ^32 P-ATP and T4 polynucleotide kinase as described in Example 3. […] Aliquots were removed at various times and analyzed by polyacrylamide gel electrophoresis. […]

[3] = system: mouse globin mRNA (MA-15: mouse α-globin mRNA; CODMB-25: mouse β-globin mRNA); experiment: In vitro translation of globin mRNA in rabbit reticulocyte lysate (hybrid-arrested translation, role of RNaseH); format: biochemical; settings: for inhibition of translation of the targeted mRNA: in words; for % Inhibition Of Globin Synthesis, +poly rA/oligo dT: with poly rA/oligo dT 500 ug/ml (RNaseH inhibitor); for % Inhibition Of Globin Synthesis, +poly rA/oligo dT / % Inhibition Of Globin Synthesis, -poly rA/oligo dT: CODMB-25 4 uM, 1 hour at 30° C.; for % Inhibition Of Globin Synthesis, -poly rA/oligo dT: without poly rA/oligo dT
Description: For the purpose of these experiments two oligonucleotides were synthesized: 5'-GAGCACCATGGTTTC, MA-15; and 5'-[…],(SEQ ID NO:2) CODMB-25. Both were prepared on a Beckman automated DNA synthesizer using the phophoramidite method. MA-15 is complementary to a sequence within mouse α-globin mRNA spanning the initiation codon. CODMB-25 hybridizes to a sequence within the coding region of mouse β-globin mRNA. Mouse globin mRNA was isolated from reticulocytes obtained from mice rendered anemic by treatment with phenylhydrazine as described by Goosens and Kan (Methods in Enzymology (Antonini, E., Rossi-Bernadi, L., and Chiancone, E., eds.) 76, 805-817, 1981). In vitro translation reactions were carried out in the rabbit reticulocyte lysate system. The reticylocyte lysates used were purchased from ProMega Biotec, and contain RNaseH. Translation reactions were programmed with 1 ug of total mouse reticulocyte RNA. The reactions were allowed to proceed for 1 hour at 30° C. Each sample contained 45 uCi of [^35 S]methionine (Amersham) in a total volume of 25 ul. Protein synthesis was measured by incorporation of [^35 S]methionine into material precipitatable in 10% trichloracetic acid. In control reactions in the absence of oligonucleotide, synthesis of β globin accounts for 60% of the incorporated counts; α globin synthesis accounts for 40% of the radioactivity incorporated into protein. Reactions were carried out in both the presence and absence of poly rA/oligo dT (500 ug/ml).

mouse α-globin mRNA = experiment: Cleavage of globin mRNA by E. coli RNaseH after hybridization with oligonucleotide (Northern blot); format: biochemical; settings: 1.1 nanomoles oligonucleotide in 22 microliters, 2 units E. coli RNaseH, 30 minutes at 37° C.
Description: Mouse globin mRNA was isolated from mice rendered anemic by treatment with phenylhydrazine as described in Example 1. Three oligonucleotides were compared in this study; MA-15, the derivative of MA-15 utilized in Examples 5 and 6 in which the 3'-terminal internucleotide link is modified as a trichlorodimethylethyl phosphotriester (MA-15-TCDM), and a derivative further modified at the 5'-terminal OH group with naphthylisocyanate (NPH-MA-15-TCDM). Mouse globin mRNA (2 micrograms) was added to 1.1 nanomoles of the oligonucleotide in a final volume of 22 microliters containing 10 mM tris-HCl buffer at pH 7.5, 5 mM MgCl2, 25 mM NaCl, and 1 mM dithiothreitol. The reactions were initiated by the addition of 2 units of E. coli RNaseH, and were allowed to proceed for 30 minutes at 37° C. The reactions were stopped by extraction of the samples with a 1:1 mixture of phenol and chloroform. The mRNA species remaining after digestion with RNaseH were isolated by precipitation with ethanol and analyzed on Northern blots.
The RNA samples were reacted with 1 M glyoxal in a 1:1 (volume/volume) mixture of 10 mM sodium phosphate buffer at pH 6.5 and dimethylsulfoxide for 1 hour at 50° C., and then electrophoresed on a 1.5% agarose gel. The RNAs were transferred from the gel to a Gene Screen Plus filter (DuPont-NEN) by capillary blotting according to the method described by the manufacturer. […]

Substance | effect on c-myc mRNA levels (c-myc mRNA) | degradation by 5'- to 3'-exonucleolytic activity in K562 cell extracts ([1]; K562 cell extracts) | primary pathway of degradation in K562 cell extracts ([1]; K562 cell extracts) | rate of degradation compared with that in blood ([1]; K562 cell extracts vs blood) | half-life for cleavage of the 3'-terminal internucleotide link ([1]; K562 cell extracts, 3' to 5' exonucleolytic activity, 37° C.) [min] | half-life for cleavage of the 5'-terminal nucleotide unit from the chain ([1]; K562 cell extracts, 5'- to 3'-exonucleolytic activity, 37° C.) [min] | inhibition of β-globin synthesis (β-globin mRNA) | pathway of degradation in human blood [2] | inhibition of translation of the targeted mRNA [3] | % Inhibition Of Globin Synthesis, +poly rA/oligo dT [3] [%] | % Inhibition Of Globin Synthesis, -poly rA/oligo dT [3] [%] | decrease in intensity of the α-globin mRNA band (RNaseH cleavage) (mouse α-globin mRNA)
5'-T CCCTTCATCCCGAAGTT C (antisense TCCCTTCATCCCGAAGTTC; TCDM group attached, position not given here) [anti-albumin oligonucleotide, oligonucleotide complementary to human albumin mRNA; ( ) again represents the TCDM group] | no effect | – | – | – | – | – | – | – | – | – | – | –
5'-GAGCACCATGGTTTC [MA-15] | – | A slower 5'- to 3'-exonucleolytic activity was also observed | 3' to 5' exonucleolytic activity | much faster than that in blood | 2 | 20 | inhibits β-globin synthesis to some extent | sequential exonucleolytic cleavage of the strand from the 3'-toward the 5'-end of the chain | very effectively inhibited translation of the targeted mRNA | 3 | 51 | marked decrease in the intensity of the band for α-globin mRNA
5'-TGTCCAAGTGATTCAGGCCATCGTT [CODMB-25] | – | – | – | – | – | – | – | – | very effectively inhibited translation of the targeted mRNA | 5 | 61 | –
